Laboratory results as given in patent publication US20060004102A1, “Polymorphic forms of nateglinide” (priority 2004, published 2006).
Structures can show the parent of a compound that is named as a salt. Where two headings read alike, the source gives them in different places.

How the values were obtained:
[1] = Solubility of nateglinide in solvents; format: physicochemical; conditions: mixture of methanol, water and a base (source of ammonium ions)
[2] = DSC, according to U.S. Pat. No. 5,463,116; cited from earlier work
[3] = cited from earlier work

For `CC(C)[C@H]1CC[C@H](C(=O)N[C@H](Cc2ccccc2)C(=O)O)CC1` [Form Phi, nateglinide ammonium salt], the solubility [1] was “relatively insoluble”.
For `CC(C)[C@H]1CC[C@H](C(=O)N[C@H](Cc2ccccc2)C(=O)O)CC1` [B-type, nateglinide], the “stability of crystal form during grinding” value [2] is given as “unstable and susceptible to change during grinding”.
For `CC(C)[C@H]1CC[C@H](C(=O)N[C@H](Cc2ccccc2)C(=O)O)CC1` [nateglinide, (−)-N-(trans-4-isoporpylcyclohexanecarbonyl)-D-Phenylalanine], the solubility ([3]; in acetonitrile) is listed as “sparingly soluble”, the solubility ([3]; in chloroform) is listed as “freely soluble” and the solubility ([3]; in ethanol) is listed as “freely soluble”. The solubility ([3]; in ether) was “soluble”, the solubility ([3]; in methanol) was “freely soluble” and the solubility ([3]; in octanol) was “sparingly soluble”. The solubility ([3]; in water) was “practically insoluble” and the solubility ([3]; in water, listed as Nateglinide) was “insoluble”.
